Values after ≈ are worked out from the molar mass of the structure shown. Counter-ions that a name gives are not always drawn. Like-named read-outs stand apart in the source and are kept apart here.
Columns and labels:
A. baumannii 19606 = assay: Minimal inhibitory concentration, A. baumannii 19606; assay type: cell-based; conditions: 16 hour minimal inhibitory concentration at 37° C., read-out: MIC (μM) A. baumannii 19606
In short: (§1)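 Broth microdilution, 2-fold series from DMSO stock; inoculum = saturated overnight culture (LB; TSA for S. aureus) diluted 1:100 then 1:100. 37 °C, 16 h, no shaking. OD600 read-out; MIC = lowest conc. inhibiting growth (µM).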

S. aureus RN4220 = assay: Minimal inhibitory concentration, S. aureus RN4220; assay type: cell-based; conditions: 16 hour minimal inhibitory concentration at 37° C., read-out: MIC (μM) S. aureus RN4220
In short: as §1

E. coli MC4100 = assay: Minimal inhibitory concentration, E. coli MC4100; assay type: cell-based; conditions: 16 hour minimal inhibitory concentration at 37° C., read-out: MIC (μM) E. coli MC4100 ara+
In short: as §1

WT E. coli = assay: Minimal inhibitory concentration in wild-type E. coli; assay type: cell-based, Escherichia coli; conditions: read-out: MIC (μM) in WT E. coli
Description: General Procedure for Determination of Minimal Inhibitory Concentrations
Overnight cultures (5 mL) of bacterial strains were grown in LB media or TSA media (for S. aureus) at 37° C. and with shaking at 220 rpm until saturation. The overnight culture was diluted serially 1:100 (50 μL in 5 mL sterile media) and then 1:100 (250 μL in 25 mL sterile media). The 25 mL of diluted culture was then dispensed to a sterile 96 well plate (Corning #3370). 198 μL of culture were dispensed into row A and 100 μL of this culture were dispensed into rows B-H. Aminocoumarin compound (DMSO stock) were added to the first row and then the row was mixed by pipetting. 100 μL of culture from row A were transferred to row B and the serial dilution continued until the final 100 μL from row H were discarded. The plate was incubated without shaking in a 37° C. for 16 hours and then read by visible light spectrophotometer (Molecular Devices) at 600 nm. The minimal inhibitory concentration (MIC) was determined as the lowest concentration of compound concentration that inhibited the growth of bacteria.

E. coli 25922 = assay: Minimal inhibitory concentration, E. coli 25922; assay type: cell-based; conditions: 16 hour minimal inhibitory concentration at 37° C., read-out: MIC (μM) E. coli 25922
In short: as §1

S. aureus MW2 = assay: Minimal inhibitory concentration, S. aureus MW2; assay type: cell-based; conditions: read-out: MIC (μM) S. aureus MW2 (MRSA)
In short: as §1

E. cloacae 13047 = assay: Minimal inhibitory concentration, E. cloacae 13047; assay type: cell-based; conditions: 16 hour minimal inhibitory concentration at 37° C., read-out: MIC (μM) E. cloacae 13047
In short: as §1

K. pneumoniae 700721 = assay: Minimal inhibitory concentration, K. pneumoniae 700721; assay type: cell-based; conditions: 16 hour minimal inhibitory concentration at 37° C., read-out: MIC (μM) K. pneumoniae 700721
In short: as §1

[1] = wild-type E. coli, 37° C., 16 hours
[2] = 16 hour minimal inhibitory concentration at 37° C.
[3] = Acinetobacter baumannii, 19606, 16 h
[4] = Staphylococcus aureus, RN4220, 16 h
[5] = Escherichia coli, wild-type E. coli, 37° C., 16 hours
[6] = Staphylococcus aureus, MRSA, 16 h, 16 hour minimal inhibitory concentration at 37° C.

Row | SMILES | MIC (A. baumannii 19606) [µM] | MIC (S. aureus RN4220) [µM] | MIC (E. coli MC4100) [µM] | MIC (WT E. coli; [1]) [µM] | MIC (E. coli 25922) [µM] | MIC (S. aureus MW2; [2]) [µM] | MIC (E. cloacae 13047) [µM] | MIC (K. pneumoniae 700721) [µM] | MIC (S. aureus RN4220; [4]) [µM] | MIC (WT E. coli; [5]) [µM] | MIC (E. cloacae 13047; Enterobacter cloacae, 13047) [µM] | MIC (K. pneumoniae 700721; Klebsiella pneumoniae, 700721) [µM] | further results
1 | CO[C@@H]1[C@@H](OC(N)=O)[C@@H](O)[C@H](Oc2ccc3c(O)c(NC(=O)c4cc(-c5ccccc5)c(OCc5ccccc5)cc4OCc4ccccc4)c(=O)oc3c2C)OC1(C)C [Compound 66] | >50 | >100 | >200 | >300 | >200 | >100 | >100 | >100 | – | – | – | – | –
2 | CO[C@@H]1[C@@H](OC(N)=O)[C@@H](O)[C@H](Oc2ccc3c(O)c(NC(=O)c4ccc(O)c(-c5ccccc5)c4)c(=O)oc3c2C)OC1(C)C [Compound 83] | 20 (≈ 12.4 µg/mL) | 3 (≈ 1.86 µg/mL) | 26 (≈ 16.1 µg/mL) | 26 (≈ 16.1 µg/mL) | 40 (≈ 24.8 µg/mL) | 2.5 (≈ 1.55 µg/mL) | >100 | >100 | – | – | – | – | –
3 | CO[C@@H]1[C@@H](OC(N)=O)[C@@H](O)[C@H](Oc2ccc3c(O)c(NC(=O)c4cccc(-c5ccc(I)cc5)c4)c(=O)oc3c2C)OC1(C)C [Compound 34] | – | – | – | – | – | – | – | – | 0.43 (≈ 0.314 µg/mL) | 59 (≈ 43.1 µg/mL) | > 100 | > 100 | MIC (A. baumannii 19606; [3]): 9 µM (≈ 6.57 µg/mL); MIC (E. coli MC4100; Escherichia coli, MC4100, 16 h): 59 µM (≈ 43.1 µg/mL); MIC (E. coli 25922; Escherichia coli, 25922, 16 h): 68 µM (≈ 49.7 µg/mL); MIC (S. aureus MW2; [6]): 0.43 µM (≈ 0.314 µg/mL)
4 | CO[C@@H]1[C@@H](OC(N)=O)[C@@H](O)[C@H](Oc2ccc3c(O)c(NC(=O)c4cccc(-c5ccc(C(C)C)cc5)c4)c(=O)oc3c2C)OC1(C)C [Compound 48] | – | – | – | – | – | – | – | – | 0.77 (≈ 0.498 µg/mL) | 89 (≈ 57.6 µg/mL) | > 100 | 77 (≈ 49.8 µg/mL) | MIC (A. baumannii 19606; [3]): 19 µM (≈ 12.3 µg/mL); MIC (E. coli MC4100; Escherichia coli, MC4100, 16 h): 89 µM (≈ 57.6 µg/mL); MIC (E. coli 25922; Escherichia coli, 25922, 16 h): 77 µM (≈ 49.8 µg/mL); MIC (S. aureus MW2; [6]): 0.48 µM (≈ 0.31 µg/mL)
5 | CO[C@@H]1[C@@H](OC(N)=O)[C@@H](O)[C@H](Oc2ccc3c(O)c(NC(=O)c4cccc(-c5c(C)cccc5C)c4)c(=O)oc3c2C)OC1(C)C [Compound 21] | – | – | – | – | – | – | – | – | 10 (≈ 6.33 µg/mL) | 133 (≈ 84.1 µg/mL) | > 100 | > 100 | MIC (A. baumannii 19606; [3]): > 50 µM; MIC (E. coli MC4100; Escherichia coli, MC4100, 16 h): 133 µM (≈ 84.1 µg/mL); MIC (E. coli 25922; Escherichia coli, 25922, 16 h): > 200 µM; MIC (S. aureus MW2; [6]): 10 µM (≈ 6.33 µg/mL)
6 | CO[C@@H]1[C@@H](OC(N)=O)[C@@H](O)[C@H](Oc2ccc3c(O)c(NC(=O)c4cccc(-c5ccc(C)cc5)c4)c(=O)oc3c2C)OC1(C)C [Compound 20] | 40 (≈ 24.7 µg/mL) | 2.5 (≈ 1.55 µg/mL) | 26 (≈ 16.1 µg/mL) | 26 (≈ 16.1 µg/mL) | 40 (≈ 24.7 µg/mL) | 3 (≈ 1.86 µg/mL) | >100 | >100 | – | – | – | – | –
7 | CO[C@@H]1[C@@H](OC(N)=O)[C@@H](O)[C@H](Oc2ccc3c(O)c(NC(=O)c4ccccc4-c4ccccc4)c(=O)oc3c2C)OC1(C)C [Compound 40] | – | – | – | – | – | – | – | – | 41 (≈ 24.8 µg/mL) | > 300 | > 100 | > 100 | MIC (A. baumannii 19606; [3]): > 50 µM; MIC (E. coli MC4100; Escherichia coli, MC4100, 16 h): > 100 µM; MIC (E. coli 25922; Escherichia coli, 25922, 16 h): > 200 µM; MIC (S. aureus MW2; [6]): 41 µM (≈ 24.8 µg/mL)
8 | CO[C@@H]1[C@@H](OC(N)=O)[C@@H](O)[C@H](Oc2ccc3c(O)c(NC(=O)c4ccc(O)c(-c5ccc(F)cc5)c4)c(=O)oc3c2C)OC1(C)C [Compound 79] | 20 (≈ 12.8 µg/mL) | 2 (≈ 1.28 µg/mL) | 26 (≈ 16.6 µg/mL) | 26 (≈ 16.6 µg/mL) | 20 (≈ 12.8 µg/mL) | 0.98 (≈ 0.626 µg/mL) | >100 | 78 (≈ 49.8 µg/mL) | – | – | – | – | –
9 | CO[C@@H]1[C@@H](OC(N)=O)[C@@H](O)[C@H](Oc2ccc3c(O)c(NC(=O)c4cc(-c5ccccc5)cc(-c5ccccc5)c4)c(=O)oc3c2C)OC1(C)C [Compound 75] | >50 | 18 (≈ 12.3 µg/mL) | >200 | >300 | >200 | 9 (≈ 6.13 µg/mL) | >100 | >100 | – | – | – | – | –
10 | CO[C@@H]1[C@@H](OC(N)=O)[C@@H](O)[C@H](Oc2ccc3c(O)c(NC(=O)c4ccc(Oc5ccccc5)cc4)c(=O)oc3c2C)OC1(C)C [Compound 44] | >50 | 45 (≈ 27.9 µg/mL) | >200 | >300 | >200 | 40 (≈ 24.8 µg/mL) | >100 | >100 | – | – | – | – | –
11 | CO[C@@H]1[C@@H](OC(N)=O)[C@@H](O)[C@H](Oc2ccc3c(O)c(NC(=O)c4cccc(-c5cccc(OC(F)(F)F)c5)c4)c(=O)oc3c2C)OC1(C)C [Compound 58] | 18 (≈ 12.4 µg/mL) | 0.36 (≈ 0.248 µg/mL) | 89 (≈ 61.3 µg/mL) | 89 (≈ 61.3 µg/mL) | >200 | 0.18 (≈ 0.124 µg/mL) | >100 | >100 | – | – | – | – | –
12 | CO[C@@H]1[C@@H](OC(N)=O)[C@@H](O)[C@H](Oc2ccc3c(O)c(NC(=O)c4cccc(-c5cn[nH]c5)c4)c(=O)oc3c2C)OC1(C)C [Compound 18] | – | – | – | >300 | – | – | – | – | – | – | – | – | –
13 | CO[C@@H]1[C@@H](OC(N)=O)[C@@H](O)[C@H](Oc2ccc3c(O)c(NC(=O)c4ccc(O)c(C/C=C/C(C)=O)c4)c(=O)oc3c2C)OC1(C)C [Compound 81] | – | – | – | – | – | – | – | – | 40 (≈ 25.1 µg/mL) | – | > 100 | > 100 | MIC (A. baumannii 19606; Acinetobacter baumannii, 19606): > 50 µM; MIC (E. coli MC4100; Escherichia coli, MC4100): > 200 µM; MIC (WT E. coli; Escherichia coli, 16 h): > 300 µM; MIC (E. coli 25922; Escherichia coli, 25922): > 200 µM; MIC (S. aureus MW2; Staphylococcus aureus, MRSA, 16 h): 40 µM (≈ 25.1 µg/mL)
14 | CO[C@@H]1[C@@H](OC(N)=O)[C@@H](O)[C@H](Oc2ccc3c(O)c(NC(=O)c4cc(-c5ccc6ccccc6c5)cc(O)c4O)c(=O)oc3c2C)OC1(C)C [Compound 98] | 36 (≈ 24.7 µg/mL) | 18 (≈ 12.4 µg/mL) | >200 | >300 | >200 | 18 (≈ 12.4 µg/mL) | >100 | >100 | – | – | – | – | –
15 | CO[C@@H]1[C@@H](OC(N)=O)[C@@H](O)[C@H](Oc2ccc3c(O)c(NC(=O)c4cccc(-c5ccccc5C)c4)c(=O)oc3c2C)OC1(C)C [Compound 47] | – | – | – | – | – | – | – | – | 20 (≈ 12.4 µg/mL) | 26 (≈ 16.1 µg/mL) | > 100 | > 100 | MIC (A. baumannii 19606; [3]): > 50 µM; MIC (E. coli MC4100; Escherichia coli, MC4100, 16 h): 26 µM (≈ 16.1 µg/mL); MIC (E. coli 25922; Escherichia coli, 25922, 16 h): 40 µM (≈ 24.7 µg/mL); MIC (S. aureus MW2; [6]): 10 µM (≈ 6.19 µg/mL)
16 | CO[C@@H]1[C@@H](OC(N)=O)[C@@H](O)[C@H](Oc2ccc3c(O)c(NC(=O)c4ccc(CCc5ccccc5)cc4)c(=O)oc3c2C)OC1(C)C [Compound 77] | >50 | 10 (≈ 6.33 µg/mL) | 40 (≈ 25.3 µg/mL) | 40 (≈ 25.3 µg/mL) | 40 (≈ 25.3 µg/mL) | 5 (≈ 3.16 µg/mL) | >100 | >100 | – | – | – | – | –
17 | CO[C@@H]1[C@@H](OC(N)=O)[C@@H](O)[C@H](Oc2ccc3c(O)c(NC(=O)c4ccc(C)o4)c(=O)oc3c2C)OC1(C)C [Compound 12] | – | – | – | >300 | – | – | – | – | – | – | – | – | –
18 | COC1[C@H](OC(N)=O)C(O)[C@H](Oc2ccc3c(O)c(N)c(=O)oc3c2C)OC1(C)C (some centres unmarked) [Compound 19, novenamine hydrochloride] | – | – | – | – | – | – | – | – | – | > 300 | – | – | –
19 | CO[C@@H]1[C@H](OC(N)=O)C(O)[C@H](Oc2ccc3c(O)c(NS(=O)(=O)c4cccc(-c5ccccc5)c4)c(=O)oc3c2C)OC1(C)C (some centres unmarked) [Compound 36] | – | – | – | – | – | – | – | – | – | > 300 | – | – | –
20 | CO[C@@H]1[C@@H](OC(N)=O)[C@@H](O)[C@H](Oc2ccc3c(O)c(NC(=O)c4ccc(O)c(C/C=C/CC(=O)O)c4)c(=O)oc3c2C)OC1(C)C [Compound 80] | – | – | – | >300 | – | – | – | – | – | – | – | – | –

Reference: patent publication US11713335B2, “Aminocoumarin compounds and methods of their use” (President and Fellows of Harvard College, priority 2018, dated 2023)
